The target in data set [1] is T1, Tyrosine-protein kinase JAK3 (Homo sapiens, UniProt P52333).
T1 sequence (P52333 whole entry): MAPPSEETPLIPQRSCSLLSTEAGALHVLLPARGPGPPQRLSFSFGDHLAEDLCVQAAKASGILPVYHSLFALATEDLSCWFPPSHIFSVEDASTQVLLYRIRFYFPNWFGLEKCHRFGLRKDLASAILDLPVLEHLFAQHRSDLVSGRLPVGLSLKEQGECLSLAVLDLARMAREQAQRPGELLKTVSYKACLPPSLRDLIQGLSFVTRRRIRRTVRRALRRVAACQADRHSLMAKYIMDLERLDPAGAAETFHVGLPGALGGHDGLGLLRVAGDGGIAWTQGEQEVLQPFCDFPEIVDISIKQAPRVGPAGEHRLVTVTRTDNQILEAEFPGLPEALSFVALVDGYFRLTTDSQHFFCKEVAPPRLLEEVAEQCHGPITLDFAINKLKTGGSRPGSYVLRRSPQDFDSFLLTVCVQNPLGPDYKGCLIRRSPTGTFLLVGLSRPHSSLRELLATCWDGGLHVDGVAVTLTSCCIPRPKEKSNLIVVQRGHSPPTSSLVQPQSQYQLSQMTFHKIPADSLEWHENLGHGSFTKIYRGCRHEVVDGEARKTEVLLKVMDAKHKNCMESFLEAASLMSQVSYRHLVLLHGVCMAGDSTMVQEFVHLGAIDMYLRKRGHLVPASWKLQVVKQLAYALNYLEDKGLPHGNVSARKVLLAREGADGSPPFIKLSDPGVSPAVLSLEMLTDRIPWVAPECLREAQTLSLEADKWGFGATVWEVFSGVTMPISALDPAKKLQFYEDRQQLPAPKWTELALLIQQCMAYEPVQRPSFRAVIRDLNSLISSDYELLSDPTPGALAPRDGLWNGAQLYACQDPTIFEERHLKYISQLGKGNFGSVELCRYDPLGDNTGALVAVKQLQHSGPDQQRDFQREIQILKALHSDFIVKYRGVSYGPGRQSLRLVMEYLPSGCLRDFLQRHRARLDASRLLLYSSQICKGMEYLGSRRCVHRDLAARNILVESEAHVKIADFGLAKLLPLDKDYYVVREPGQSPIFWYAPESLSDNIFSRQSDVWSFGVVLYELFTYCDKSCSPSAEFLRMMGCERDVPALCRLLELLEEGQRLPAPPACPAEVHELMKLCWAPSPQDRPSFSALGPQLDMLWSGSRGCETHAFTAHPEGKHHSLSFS
Put plainly: Inhibition of human JAK3 incubated for 20 mins prior to MgCl2 addition measured after 90 mins by mobility shift assay.

The target of data set [2] is Tyrosine-protein kinase JAK2 (Homo sapiens, UniProt O60674). The data set is described as follows: Inhibition of human JAK2 incubated for 20 mins prior to MgCl2 addition measured after 90 mins by mobility shift assay.
Sequence of Tyrosine-protein kinase JAK2 (O60674 whole entry): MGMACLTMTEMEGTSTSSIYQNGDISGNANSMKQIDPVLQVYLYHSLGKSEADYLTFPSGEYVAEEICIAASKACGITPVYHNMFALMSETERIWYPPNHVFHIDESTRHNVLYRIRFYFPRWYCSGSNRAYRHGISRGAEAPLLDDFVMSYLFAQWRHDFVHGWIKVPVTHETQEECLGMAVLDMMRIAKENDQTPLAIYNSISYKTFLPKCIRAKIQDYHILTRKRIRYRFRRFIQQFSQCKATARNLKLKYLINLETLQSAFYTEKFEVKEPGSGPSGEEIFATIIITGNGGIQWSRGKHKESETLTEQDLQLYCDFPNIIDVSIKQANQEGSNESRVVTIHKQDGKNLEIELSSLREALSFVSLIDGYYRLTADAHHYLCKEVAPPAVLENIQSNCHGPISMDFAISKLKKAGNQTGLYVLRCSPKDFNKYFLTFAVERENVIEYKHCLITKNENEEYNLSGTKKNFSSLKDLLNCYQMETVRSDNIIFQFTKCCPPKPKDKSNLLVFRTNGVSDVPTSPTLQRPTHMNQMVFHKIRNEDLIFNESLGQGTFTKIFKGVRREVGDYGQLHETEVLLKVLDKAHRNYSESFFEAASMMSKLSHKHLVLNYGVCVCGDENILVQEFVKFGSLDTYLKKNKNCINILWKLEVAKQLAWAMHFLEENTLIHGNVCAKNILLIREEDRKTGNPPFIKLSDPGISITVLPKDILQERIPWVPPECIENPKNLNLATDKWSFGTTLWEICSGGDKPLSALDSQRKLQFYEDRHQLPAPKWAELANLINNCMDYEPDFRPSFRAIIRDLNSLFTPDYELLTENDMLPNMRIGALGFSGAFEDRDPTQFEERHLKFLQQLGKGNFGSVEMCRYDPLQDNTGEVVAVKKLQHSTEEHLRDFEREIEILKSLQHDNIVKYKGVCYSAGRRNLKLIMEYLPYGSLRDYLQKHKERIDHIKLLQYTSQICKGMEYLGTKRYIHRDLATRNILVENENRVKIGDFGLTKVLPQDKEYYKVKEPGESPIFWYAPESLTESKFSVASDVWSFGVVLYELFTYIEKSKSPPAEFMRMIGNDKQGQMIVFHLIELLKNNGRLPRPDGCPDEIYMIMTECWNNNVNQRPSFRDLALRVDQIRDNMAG
In data set [3] the target is Interleukin-1 receptor-associated kinase 1 (Homo sapiens, UniProt P51617). Put plainly: Inhibition of human IRAK1 incubated for 20 mins prior to MgCl2 addition measured after 90 mins by mobility shift assay.
Sequence of Interleukin-1 receptor-associated kinase 1 (P51617 whole entry): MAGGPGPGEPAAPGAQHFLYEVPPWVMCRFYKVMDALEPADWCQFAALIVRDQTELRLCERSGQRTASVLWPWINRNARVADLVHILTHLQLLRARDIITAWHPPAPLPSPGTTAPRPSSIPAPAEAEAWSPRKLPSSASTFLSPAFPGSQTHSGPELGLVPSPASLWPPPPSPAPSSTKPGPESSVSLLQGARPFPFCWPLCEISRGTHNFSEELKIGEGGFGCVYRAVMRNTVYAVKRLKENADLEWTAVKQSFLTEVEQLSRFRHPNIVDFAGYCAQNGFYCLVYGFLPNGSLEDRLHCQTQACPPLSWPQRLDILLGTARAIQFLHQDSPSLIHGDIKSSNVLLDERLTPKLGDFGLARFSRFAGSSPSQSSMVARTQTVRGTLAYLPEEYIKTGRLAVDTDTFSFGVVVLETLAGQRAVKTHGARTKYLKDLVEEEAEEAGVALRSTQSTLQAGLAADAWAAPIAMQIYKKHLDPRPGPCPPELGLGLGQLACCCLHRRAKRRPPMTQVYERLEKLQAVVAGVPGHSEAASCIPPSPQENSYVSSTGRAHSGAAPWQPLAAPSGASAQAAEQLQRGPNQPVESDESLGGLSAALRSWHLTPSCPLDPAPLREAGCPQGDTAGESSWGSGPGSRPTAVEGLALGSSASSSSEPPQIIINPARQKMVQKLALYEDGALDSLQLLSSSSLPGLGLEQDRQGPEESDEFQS
The target of data set [4] is Bifunctional protein GlmU (Escherichia coli, UniProt C3SLB7). Put plainly: Inhibition of Escherichia coli ATCC 27325 GlmU expressed in Escherichia coli HMS174(DE3) incubated for 15 mins prior to MgCl2 addition measured after 30 mins by malachite green staining-based assay.
Sequence of Bifunctional protein GlmU (C3SLB7 whole entry): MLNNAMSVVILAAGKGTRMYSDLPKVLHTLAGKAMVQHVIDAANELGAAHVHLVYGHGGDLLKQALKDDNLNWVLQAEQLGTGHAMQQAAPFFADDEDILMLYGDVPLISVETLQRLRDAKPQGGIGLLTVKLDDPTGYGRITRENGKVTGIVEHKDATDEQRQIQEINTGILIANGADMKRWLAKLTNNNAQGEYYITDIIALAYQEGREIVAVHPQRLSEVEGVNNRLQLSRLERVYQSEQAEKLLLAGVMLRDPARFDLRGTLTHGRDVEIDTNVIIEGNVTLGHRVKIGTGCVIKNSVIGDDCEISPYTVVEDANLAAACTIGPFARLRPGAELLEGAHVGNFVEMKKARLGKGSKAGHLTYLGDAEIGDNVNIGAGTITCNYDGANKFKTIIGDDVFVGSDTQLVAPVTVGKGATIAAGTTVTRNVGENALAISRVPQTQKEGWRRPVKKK
In data set [5] the target is Cyclin-dependent kinase 9 (Homo sapiens, UniProt P50750). Put plainly: Inhibition of human CDK9 incubated for 20 mins prior to MgCl2 addition measured after 90 mins by mobility shift assay.
Sequence of Cyclin-dependent kinase 9 (P50750 whole entry): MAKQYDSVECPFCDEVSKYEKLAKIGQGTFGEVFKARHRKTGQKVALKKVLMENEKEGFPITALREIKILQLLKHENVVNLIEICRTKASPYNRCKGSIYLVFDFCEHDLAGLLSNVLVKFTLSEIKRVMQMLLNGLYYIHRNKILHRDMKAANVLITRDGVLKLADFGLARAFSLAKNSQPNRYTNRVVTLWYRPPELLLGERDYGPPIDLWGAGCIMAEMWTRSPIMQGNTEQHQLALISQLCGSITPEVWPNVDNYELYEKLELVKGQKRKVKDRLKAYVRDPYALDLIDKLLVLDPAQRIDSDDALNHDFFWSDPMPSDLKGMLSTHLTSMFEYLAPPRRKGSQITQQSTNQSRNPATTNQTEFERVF
Data set [6] addresses T2, Interleukin-1 receptor-associated kinase 4 (Homo sapiens, UniProt Q9NWZ3).
T2 sequence (Q9NWZ3 whole entry): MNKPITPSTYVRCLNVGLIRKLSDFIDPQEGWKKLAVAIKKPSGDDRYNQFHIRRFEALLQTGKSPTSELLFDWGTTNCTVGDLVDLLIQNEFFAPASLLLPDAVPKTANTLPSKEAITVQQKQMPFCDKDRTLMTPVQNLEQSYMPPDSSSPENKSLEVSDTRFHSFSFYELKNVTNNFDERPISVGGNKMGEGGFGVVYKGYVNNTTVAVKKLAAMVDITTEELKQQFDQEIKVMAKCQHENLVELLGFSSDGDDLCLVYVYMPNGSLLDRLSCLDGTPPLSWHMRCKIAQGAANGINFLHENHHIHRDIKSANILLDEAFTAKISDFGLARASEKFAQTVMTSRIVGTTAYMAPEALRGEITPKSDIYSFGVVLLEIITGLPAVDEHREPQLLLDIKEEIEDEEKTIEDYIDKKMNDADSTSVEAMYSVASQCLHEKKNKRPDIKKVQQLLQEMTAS
The data set is described as follows: Inhibition of human IRAK4 incubated for 20 mins prior to MgCl2 addition measured after 90 mins by mobility shift assay.

Data set [7] concerns the target Tyrosine-protein kinase JAK1 (Homo sapiens, UniProt P23458). The data set is described as follows: Inhibition of human JAK1 incubated for 20 mins prior to MgCl2 addition measured after 90 mins by mobility shift assay.
Data set [8] in a line: Serum protein binding in human at 10 uM after 30 mins by ultrafiltration method. It counts as ADME. Conditions: read-out: PB (converted).
Data set [9] can be described thus: Inhibition of Haemophilus influenzae ATCC 51907 GlmU expressed in Escherichia coli BL21(DE3) incubated for 15 mins prior to MgCl2 addition measured after 30 mins by malachite green staining-based assay.
The target of data set [10] is Aurora kinase B (Homo sapiens, UniProt Q96GD4). Put plainly: Inhibition of human AURKB incubated for 20 mins prior to MgCl2 addition measured after 90 mins by mobility shift assay.
Sequence of Aurora kinase B (Q96GD4 whole entry): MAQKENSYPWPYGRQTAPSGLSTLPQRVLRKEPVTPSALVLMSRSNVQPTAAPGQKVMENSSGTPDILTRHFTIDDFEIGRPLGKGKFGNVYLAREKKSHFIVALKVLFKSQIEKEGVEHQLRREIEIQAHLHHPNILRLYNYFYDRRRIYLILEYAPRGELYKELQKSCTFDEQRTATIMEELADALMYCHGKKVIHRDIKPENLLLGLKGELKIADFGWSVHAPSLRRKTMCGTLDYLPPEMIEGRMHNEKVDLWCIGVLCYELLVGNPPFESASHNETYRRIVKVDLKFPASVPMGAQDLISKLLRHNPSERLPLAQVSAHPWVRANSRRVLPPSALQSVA
The target in data set [11] is Cyclin-dependent kinase 1 (Homo sapiens, UniProt P06493). Put plainly: Inhibition of human CDK1 incubated for 20 mins prior to MgCl2 addition measured after 90 mins by mobility shift assay.
Sequence of Cyclin-dependent kinase 1 (P06493 whole entry): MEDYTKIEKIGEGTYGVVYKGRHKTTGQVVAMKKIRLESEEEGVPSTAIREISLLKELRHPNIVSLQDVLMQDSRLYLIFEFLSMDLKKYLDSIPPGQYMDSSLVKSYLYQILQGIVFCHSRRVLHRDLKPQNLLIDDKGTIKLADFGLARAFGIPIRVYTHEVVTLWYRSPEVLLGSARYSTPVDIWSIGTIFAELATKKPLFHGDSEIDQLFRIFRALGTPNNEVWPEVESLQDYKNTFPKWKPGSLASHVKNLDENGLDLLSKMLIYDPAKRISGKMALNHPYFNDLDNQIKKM
The target in data set [12] is Cyclin-dependent kinase 2 (Homo sapiens, UniProt P24941). The data set is described as follows: Inhibition of human CDK2 incubated for 20 mins prior to MgCl2 addition measured after 90 mins by mobility shift assay.

Molecules are shown by their SMILES.

Sequence of Tyrosine-protein kinase JAK1 (P23458 whole entry): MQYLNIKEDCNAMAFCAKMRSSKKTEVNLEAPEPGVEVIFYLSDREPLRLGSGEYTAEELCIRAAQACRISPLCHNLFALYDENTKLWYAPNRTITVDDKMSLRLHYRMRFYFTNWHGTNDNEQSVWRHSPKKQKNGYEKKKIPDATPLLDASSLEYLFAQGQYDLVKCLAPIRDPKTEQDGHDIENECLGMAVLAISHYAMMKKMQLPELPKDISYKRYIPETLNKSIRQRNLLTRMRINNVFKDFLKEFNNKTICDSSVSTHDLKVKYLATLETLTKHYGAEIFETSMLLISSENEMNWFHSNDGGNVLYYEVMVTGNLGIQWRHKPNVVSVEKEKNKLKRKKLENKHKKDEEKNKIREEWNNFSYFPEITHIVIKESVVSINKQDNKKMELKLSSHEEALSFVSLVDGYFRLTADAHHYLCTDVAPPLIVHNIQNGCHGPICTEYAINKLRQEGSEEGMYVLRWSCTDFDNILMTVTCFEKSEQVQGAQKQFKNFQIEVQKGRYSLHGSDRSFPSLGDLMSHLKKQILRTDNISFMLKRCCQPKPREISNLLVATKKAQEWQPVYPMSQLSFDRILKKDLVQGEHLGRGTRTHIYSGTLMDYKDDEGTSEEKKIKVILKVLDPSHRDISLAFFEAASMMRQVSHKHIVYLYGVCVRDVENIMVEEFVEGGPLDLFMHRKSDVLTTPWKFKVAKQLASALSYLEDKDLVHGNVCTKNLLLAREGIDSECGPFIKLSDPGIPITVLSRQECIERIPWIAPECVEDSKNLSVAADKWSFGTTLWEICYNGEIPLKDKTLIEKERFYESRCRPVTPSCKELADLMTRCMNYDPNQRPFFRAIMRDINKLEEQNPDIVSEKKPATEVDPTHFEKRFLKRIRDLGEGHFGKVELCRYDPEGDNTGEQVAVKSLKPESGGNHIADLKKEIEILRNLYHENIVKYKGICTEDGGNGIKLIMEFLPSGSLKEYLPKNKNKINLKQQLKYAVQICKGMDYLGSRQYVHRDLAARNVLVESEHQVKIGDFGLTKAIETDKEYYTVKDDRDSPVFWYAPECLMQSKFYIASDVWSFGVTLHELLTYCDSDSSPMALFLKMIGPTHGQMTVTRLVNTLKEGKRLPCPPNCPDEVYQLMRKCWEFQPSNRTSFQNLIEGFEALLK

By IC50 is commonly meant the concentration at which inhibition is half-maximal. Consider `O=C(Nc1ccc(NC(=O)c2ccccn2)cc1)c1ccc(O)c([N+](=O)[O-])c1`, for which the IC50 is over 30 µM in [1]; over 30 µM in data set [2]; over 30 µM in data set [3]; 3.1 µM in data set [4]; over 30 µM in data set [5]; over 30 µM in data set [6]. Besides, the IC50 in data set [7] is over 30 µM; in data set [9], 0.05 µM; in data set [10], 23.1 µM; in data set [11], over 30 µM; in [12] it was over 30 µM. In [8], the fraction unbound at 0.5 h, 10 µM is under 0.01.
`COc1cc2c(Nc3ccc(NC(=O)c4ccccc4)cc3)nc(NCCc3ccccn3)nc2cc1O`: the IC50 is over 30 µM in [1]; over 30 µM in data set [2]; over 30 µM in data set [3]; 0.65 µM in data set [4]; over 30 µM in data set [5]; 0.579 µM in [6]. Besides, the IC50 in data set [7] is over 30 µM; in [9], 0.38 µM; in data set [10] it was over 30 µM; in data set [11], over 30 µM; in data set [12] it was over 30 µM. Besides, in [8], the fraction unbound at 0.5 h, 10 µM is under 0.01.
As for `COc1cc(C(=O)Nc2ccc(NC(=O)c3ccccn3)cc2)cc(-c2nn[nH]n2)c1`, the IC50 in [4] stood at 21 µM; in [9], 0.55 µM. For the same compound, the fraction unbound at 0.5 h, 10 µM in data set [8] was 0.032.
For `COc1cc2c(Nc3ccc(NC(=O)c4ccccc4)cc3)ncnc2cc1OCC(N)=O`, the IC50 in data set [1] is over 30 µM; in data set [2] it was over 30 µM; in [3] it was over 30 µM; in data set [4], over 22 µM; in [5], over 30 µM; in data set [6], over 30 µM. For the same compound, the IC50 is over 30 µM in [7]; over 22 µM in data set [9]; 0.155 µM in [10]; over 30 µM in [11]; over 30 µM in data set [12].
For `COc1cc2c(Nc3ccc(NC(=O)c4ccccc4)cc3)ncnc2cc1OCCO`, the IC50 is over 30 µM in data set [1]; over 30 µM in [2]; over 30 µM in [3]; 35 µM in data set [4]; over 30 µM in data set [5]; 24.4 µM in [6]. For the same compound, the IC50 in data set [7] was over 30 µM; in data set [9], 19 µM; in data set [10], 0.0273 µM; in data set [11], over 30 µM; in data set [12], over 30 µM.
Take `COc1cc2c(Nc3ccc(NC(=O)c4ccccc4)cc3)nc(Cc3ccccc3)nc2cc1O`: the results for the IC50 in [4] and in data set [9] were 4.8 µM and 1.8 µM, respectively. Further, in [8], the fraction unbound at 0.5 h, 10 µM is under 0.01.
`COc1cc(C(=O)Nc2ccc(NC(=O)c3ccccn3)cc2)cc(-c2nc(=O)o[nH]2)c1`: the IC50 in data set [4] was over 22 µM; in [9], 1.7 µM. For the same compound, in data set [8], the fraction unbound at 0.5 h, 10 µM is 0.016.
On the same counts, the results for `COc1cc(C(=O)Nc2ccc(NC(=O)c3ccccn3)cc2)cc(-c2cnc(=O)[nH]c2)c1` are 4.2 µM, 0.98 µM and under 0.01.
Consider `COc1cc(C(=O)Nc2ccc(NC(=O)c3ccccn3)cc2)ccc1O`, for which the IC50 in data set [1] was over 30 µM; in [2], over 30 µM; in [3] it was over 30 µM; in [4] it was 8.2 µM; in [5], over 30 µM; in [6], over 30 µM. Also, the IC50 is over 30 µM in data set [7]; 0.51 µM in data set [9]; 5.91 µM in data set [10]; over 30 µM in data set [11]; over 30 µM in data set [12]. Besides, the fraction unbound at 0.5 h, 10 µM in data set [8] was 0.016.
Turning to `COc1cc(C(=O)Nc2ccc(NC(=O)c3ccccc3)cc2)ccc1OCC(N)=O`, the IC50 in [4] and in [9] was over 22 µM throughout.
With `COc1cc2c(Nc3ccc(NC(=O)c4ccccc4)cc3)nc(-c3ccccn3)nc2cc1O`, the 50% inhibitory concentration (IC50) in data set [4] amounted to 2.7 µM; in data set [9], 1.5 µM. In [8], the fraction unbound at 0.5 h, 10 µM was under 0.01.
Take `COc1cc(C(=O)Nc2ccc(NC(=O)c3ccccc3)cc2)cc(-c2c[nH]c(=O)[nH]c2=O)c1O`: the IC50 in data set [4] came to 0.26 µM; in [9], 0.02 µM. Further, the fraction unbound at 0.5 h, 10 µM in data set [8] is 0.019.
For the compound `O=c1[nH]cc(-c2cccc(Br)c2)c(=O)[nH]1`, the concentration for half-maximal inhibition (IC50) in [9] was 50 µM.
Take `COc1cc2c(Nc3ccc(NC(=O)c4ccccc4)cc3)nc(Cl)nc2cc1O`: the IC50 in data set [4] was found to be 0.37 µM; in data set [9], 0.65 µM. Besides, in data set [8], the fraction unbound at 0.5 h, 10 µM was 0.021.
For `COc1cc2c(Nc3ccc(NC(=O)c4ccccc4)cc3)ncnc2cc1O`, the IC50 was over 30 µM in data set [1]; over 30 µM in data set [2]; over 30 µM in data set [3]; 1.3 µM in data set [4]; over 30 µM in data set [5]; over 30 µM in [6]. For the same compound, the IC50 was over 30 µM in data set [7]; 0.26 µM in data set [9]; 0.275 µM in data set [10]; over 30 µM in [11]; over 30 µM in [12].
Regarding `COc1cc2c(Nc3ccc(NC(=O)c4ccccc4)cc3)nc(NCCCn3ccnc3)nc2cc1O`, the IC50 in data set [4] came to 4.5 µM; in [9] it was 1.12 µM. In data set [8], the fraction unbound at 0.5 h, 10 µM is 0.012.
As for `O=c1[nH]cc(-c2cccc([N+](=O)[O-])c2)c(=O)[nH]1`, inhibition in data set [9] was half-maximal at 1950 µM (IC50).
As to `COc1cc(C(=O)Nc2ccc(NC(=O)c3ccccn3)cc2)cc(-c2c[nH]c(=O)[nH]c2=O)c1`, the IC50 in [1] was over 30 µM; in [2], over 30 µM; in data set [3], over 30 µM; in [4], 0.027 µM; in [5], over 30 µM; in data set [6] it was over 30 µM. The IC50 in data set [7] is over 30 µM; in data set [9] it was 0.0017 µM; in data set [10], over 30 µM; in [11] it was over 30 µM; in data set [12], over 30 µM.
On to `COc1cc(C(=O)Nc2ccc(NC(=O)c3ccccc3)cc2)ccc1OCC(=O)O`, for which the IC50 in data set [1] was over 30 µM; in data set [2] it was over 30 µM; in data set [3], over 30 µM; in [4] it was over 67 µM; in data set [5], over 30 µM; in [6], over 30 µM. Moreover, the IC50 in data set [7] is over 30 µM; in data set [9] it was 23 µM; in data set [10], over 30 µM; in data set [11], over 30 µM; in [12], over 30 µM.
